Results taken from doi:10.1101/2025.02.18.638599v1 (biorxiv, 2025).

What was measured:
[1] = test system: E. coli BW25113; parameters: species or system Escherichia coli; settings: compound alone; 24 h; inhibitor
[2] = molecular target: T1, AcrB (Escherichia coli, UniProt P31224); assay: label-free microscale thermophoresis; type: binding
T1 sequence (P31224 1-1049): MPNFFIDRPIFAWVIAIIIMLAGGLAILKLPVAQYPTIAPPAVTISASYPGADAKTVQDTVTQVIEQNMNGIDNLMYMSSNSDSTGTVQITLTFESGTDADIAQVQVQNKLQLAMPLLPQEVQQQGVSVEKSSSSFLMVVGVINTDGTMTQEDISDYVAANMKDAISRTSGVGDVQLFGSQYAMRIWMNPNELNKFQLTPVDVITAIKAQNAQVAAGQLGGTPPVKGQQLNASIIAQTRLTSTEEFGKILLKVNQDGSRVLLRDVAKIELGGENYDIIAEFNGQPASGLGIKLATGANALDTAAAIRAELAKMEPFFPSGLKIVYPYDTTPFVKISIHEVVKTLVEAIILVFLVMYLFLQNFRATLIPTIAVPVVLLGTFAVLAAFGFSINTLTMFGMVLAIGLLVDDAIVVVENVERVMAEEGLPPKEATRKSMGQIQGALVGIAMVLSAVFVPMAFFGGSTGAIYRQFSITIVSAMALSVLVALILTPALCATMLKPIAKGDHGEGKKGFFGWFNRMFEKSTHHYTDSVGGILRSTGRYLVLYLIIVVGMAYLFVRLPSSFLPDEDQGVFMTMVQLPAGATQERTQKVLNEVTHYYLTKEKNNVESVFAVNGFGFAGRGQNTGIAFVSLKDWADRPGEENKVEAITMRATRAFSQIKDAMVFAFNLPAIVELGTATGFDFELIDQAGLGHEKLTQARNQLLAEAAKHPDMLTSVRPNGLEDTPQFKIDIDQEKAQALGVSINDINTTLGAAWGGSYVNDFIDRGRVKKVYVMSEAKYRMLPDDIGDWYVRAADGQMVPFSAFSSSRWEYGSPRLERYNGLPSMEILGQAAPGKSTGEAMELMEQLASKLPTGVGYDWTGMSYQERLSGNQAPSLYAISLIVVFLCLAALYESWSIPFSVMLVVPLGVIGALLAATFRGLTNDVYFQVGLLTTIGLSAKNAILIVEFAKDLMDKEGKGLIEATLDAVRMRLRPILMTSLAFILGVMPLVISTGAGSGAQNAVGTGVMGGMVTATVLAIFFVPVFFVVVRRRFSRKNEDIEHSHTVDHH

[3] = molecular target: T2, TolC (Escherichia coli, UniProt P02930); assay: label-free microscale thermophoresis; type: binding
T2 sequence (P02930 23-493): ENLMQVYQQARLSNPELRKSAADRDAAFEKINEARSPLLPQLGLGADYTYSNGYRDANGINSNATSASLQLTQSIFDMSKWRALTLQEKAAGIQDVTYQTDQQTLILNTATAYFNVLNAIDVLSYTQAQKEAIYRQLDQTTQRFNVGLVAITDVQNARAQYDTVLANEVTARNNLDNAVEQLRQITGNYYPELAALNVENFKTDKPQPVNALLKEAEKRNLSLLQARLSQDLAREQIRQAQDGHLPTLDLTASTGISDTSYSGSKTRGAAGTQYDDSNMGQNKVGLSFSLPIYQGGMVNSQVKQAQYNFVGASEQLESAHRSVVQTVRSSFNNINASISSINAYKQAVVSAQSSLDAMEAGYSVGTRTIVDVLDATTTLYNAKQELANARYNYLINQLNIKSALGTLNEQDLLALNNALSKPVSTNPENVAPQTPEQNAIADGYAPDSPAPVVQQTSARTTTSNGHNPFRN

[4] = test system: E. coli JW5503; assay: microbe, parasite or virus in culture; settings: Escherichia coli, JW5503, 24 h, read-out: MIC, E. coli JW5503
[5] = test system: E. coli BW25113; assay: microbe, parasite or virus in culture; settings: Escherichia coli, BW25113, 24 h, read-out: MIC, E. coli BW25113

MIC, E. coli BW25113 [1]	Kd [2]	Kd [3]	MIC [4]	MIC [5]	SMILES
>125 µM	–	–	–	–	COc1c(N)ccc2c1CCCC(N1CCN(CCO)CC1)C2 (centres unmarked) [LP-115]
–	198 µM	282 µM	> 75 µM	> 125 µM	CNC(=O)c1ccccc1Nc1nc(Nc2ccc3c(c2OC)CCC[C@H](N2CCN(CCO)CC2)C3)ncc1Cl [CEP-37440]
